Key:
Mcl-1 [1] = target: T1, Mcl-1 (Homo sapiens (Human), UniProt Q07820); assay: TR-FRET binding assay, FITC-Bak peptide and MBP-tagged Mcl-1; settings: read-out: Ki for Inhibition of Mcl-1 by TR-FRET assay
Description: Compounds are diluted in DMSO in a 16-point, semilog serial dilution scheme. […] The plate was mixed and incubated for 3 hours at room temperature. […] TR-FRET signal is plotted and IC50 and Ki values are calculated in the same manner as the fluorescence polarization anisotropy based competition assays.

[2] = test system: H929 human cancer cell lines; assay: Cellular viability / proliferation (Cell TiterGlo, 72 h); format: cell-based; settings: Homo sapiens, NCI-H929, 72 h, read-out: GI50 on cellular proliferation of H929 human cancer cell lines, H929 cells, 72 h, Cell TiterGlo, 10% FBS
Procedure, shortened: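 H929 cells plated at 1,000/well in 10% FBS medium received a 2-fold serial compound dilution (top 50 μM, DMSO <1%) 24 h later. After 72 h, viability was read by CellTiter-Glo luminescence. IC50 came from a four-parameter fit.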

Mcl-1 [3] = target: T1, Mcl-1; assay: Fluorescence polarization anisotropy (FPA) competition assay, FITC-Bak or FITC-Bim BH3 peptide; format: binding; settings: read-out: Ki for Inhibition of Mcl-1 by FPA assay

T1 sequence (Q07820 172-327): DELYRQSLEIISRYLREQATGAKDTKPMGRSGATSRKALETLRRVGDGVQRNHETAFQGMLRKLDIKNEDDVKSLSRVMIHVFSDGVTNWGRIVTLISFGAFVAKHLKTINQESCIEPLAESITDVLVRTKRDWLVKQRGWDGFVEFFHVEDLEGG

| Structure (SMILES) | Ki (Mcl-1 [1]) | GI50 [2] | Ki (Mcl-1 [3]) |
| --- | --- | --- | --- |
| Cc1cc(OCCCc2c3n(c4c(-c5c(C)nn(C)c5C)c(Cl)ccc24)[C@H](C)CN(c2cc(NC(=O)CN4CCN(C)CC4)cc4c(C(=O)O)cn(C)c24)C3=O)cc(C)c1Cl [Example 554, (R)-7-(7-chloro-10-(3-(4-chloro-3,5-dimethylphenoxy)propyl)-4-methyl-1-oxo-6-(1,3,5-trimethyl-1H-pyrazol-4-yl)-3,4-dihydropyrazino[1,2-a]indol-2(1H)-yl)-1-methyl-5-(2-(4-methylpiperazin-1-yl)acetamido)-1H-indole-3-carboxylic acid] | 0.26 nM | – | – |
| Cc1cc(N2C[C@@H](C)n3c(c(CCCOc4cc(C)c(Cl)c(C)c4)c4ccc(Cl)c(-c5c(C)nn(C)c5C)c43)C2=O)c2c(c1)cc(C(=O)O)n2Cc1ccccn1 [Example 713, (M, R)-7-(7-chloro-10-(3-(4-chloro-3,5-dimethylphenoxy)propyl)-4-methyl-1-oxo-6-(1,3,5-trimethyl-1H-pyrazol-4-yl)-3,4-dihydropyrazino[1,2-a]indol-2(1H)-yl)-5-methyl-1-(pyridin-2-ylmethyl)-1H-indole-2-carboxylic acid] | < 0.2 nM | – | – |
| COCCn1c(C(=O)O)cc2cc(C)cc(N3C[C@@H](C)n4c(c(CCCOc5cc(C)c(Cl)c(C)c5)c5ccc(Cl)c(-c6c(C)nn(C)c6C)c54)C3=O)c21 [Example 710, (P, R)-7-(7-chloro-10-(3-(4-chloro-3,5-dimethylphenoxy)propyl)-4-methyl-1-oxo-6-(1,3,5-trimethyl-1H-pyrazol-4-yl)-3,4-dihydropyrazino[1,2-a]indol-2(1H)-yl)-1-(2-methoxyethyl)-5-methyl-1H-indole-2-carboxylic acid] | < 0.2 nM | – | – |
| Cc1cc(OCCCc2c3n(c4c(-c5c(C)nn(C)c5C)c(Cl)ccc24)[C@H](C)CN(c2cc(N(C)C(=O)CN4CCCC4)cc4c(C(=O)O)cn(C)c24)C3=O)cc(C)c1Cl [Example 613, (R)-7-(7-chloro-10-(3-(4-chloro-3,5-dimethylphenoxy)propyl)-4-methyl-1-oxo-6-(1,3,5-trimethyl-1H-pyrazol-4-yl)-3,4-dihydropyrazino[1,2-a]indol-2(1H)-yl)-1-methyl-5-(N-methyl-2-(pyrrolidin-1-yl)acetamido)-1H-indole-3-carboxylic acid] | 1.9 nM | – | – |
| Cc1cc(N2C[C@@H](C)n3c(c(CCCOc4cc(C)c(Cl)c(C)c4)c4ccc(Cl)c(-c5c(C)nn(C)c5C)c43)C2=O)c2c(c1)cc(C(=O)O)n2Cc1ccccn1 [Example 714, (P, R)-7-(7-chloro-10-(3-(4-chloro-3,5-dimethylphenoxy)propyl)-4-methyl-1-oxo-6-(1,3,5-trimethyl-1H-pyrazol-4-yl)-3,4-dihydropyrazino[1,2-a]indol-2(1H)-yl)-5-methyl-1-(pyridin-2-ylmethyl)-1H-indole-2-carboxylic acid] | < 0.2 nM | – | – |
| Cc1cc(OCCCc2c3n(c4c(-c5c(C)nn(C)c5C)c(Cl)ccc24)[C@H](C)CN(c2cn(C)c4cc(-c5nnco5)ccc24)C3=O)cc(C)c1Cl [Example 343, (R)-7-Chloro-10-(3-(4-chloro-3,5-dimethylphenoxy)propyl)-4-methyl-2-(1-methyl-6-(1,3,4-oxadiazol-2-yl)-1H-indol-3-yl)-6-(1,3,5-trimethyl-1H-pyrazol-4-yl)-3,4-dihydropyrazino[1,2-a]indol-1(2H)-one] | – | 3600 nM | 3.7 nM |
| Cc1cc(OCCCc2c3n(c4c(-c5c(C)ncnc5C)c(Cl)ccc24)CCCN(c2cc(C(=O)O)c4cnn(C)c4c2)C3=O)cc(C)c1Cl [Example 155, 6-[8-Chloro-11-[3-(4-chloro-3,5-dimethyl-phenoxy)propyl]-7-(4,6-dimethylpyrimidin-5-yl)-1-oxo-4,5-dihydro-3H-[1,4]diazepino[1,2-a]indol-2-yl]-1-methyl-indazole-4-carboxylic acid] | – | 1400 nM | < 1 nM |
| Cc1cc(N2C[C@@H](C)n3c(c(CCCOc4cc(C)c(Cl)c(C)c4)c4ccc(Cl)c(-c5c(C)nn(C)c5C)c43)C2=O)c2c(c1)c(C(=O)O)cn2C [Example 159, (R)-7-(7-chloro-10-(3-(4-chloro-3,5-dimethylphenoxy)propyl)-4-methyl-1-oxo-6-(1,3,5-trimethyl-1H-pyrazol-4-yl)-3,4-dihydropyrazino[1,2-a]indol-2(1H)-yl)-1,5-dimethyl-1H-indole-3-carboxylic acid] | – | 290 nM | < 1 nM |
| Cc1cc(OCCCc2c3n(c4c(-c5c(C)nn(CC6CCN(C)CC6)c5C)c(Cl)ccc24)[C@H](C)CN(c2cn(C)c4c(C)cc(C(=O)O)cc24)C3=O)cc(C)c1Cl [Example 161, (R)-3-(7-chloro-10-(3-(4-chloro-3,5-dimethylphenoxy)propyl)-6-(3,5-dimethyl-1-((1-methylpiperidin-4-yl)methyl)-1H-pyrazol-4-yl)-4-methyl-1-oxo-3,4-dihydropyrazino[1,2-a]indol-2(1H)-yl)-1,7-dimethyl-1H-indole-5-carboxylic acid] | – | 480 nM | 2.8 nM |
| Cc1cc(OCCCc2c3n(c4c(-c5c(C)nn(C)c5C)c(Cl)ccc24)[C@H](C)CN(c2cc(C(=O)O)c4c(cnn4C)c2)C3=O)cc(C)c1Cl [Example 98, (R)-5-(7-chloro-10-(3-(4-chloro-3,5-dimethylphenoxy)propyl)-4-methyl-1-oxo-6-(1,3,5-trimethyl-1H-pyrazol-4-yl)-3,4-dihydropyrazino[1,2-a]indol-2(1H)-yl)-1-methyl-1H-indazole-7-carboxylic acid] | – | 6600 nM | < 1 nM |
| Cc1cc(OCCCc2c3n(c4c(-c5c(C)nn(C)c5C)c(Cl)ccc24)[C@H](C)CN(c2c(C)n(C)c4ccc(C(=O)O)cc24)C3=O)cc(C)c1Cl [Example 275, 3-[(4R)-7-chloro-10-[3-(4-chloro-3,5-dimethyl-phenoxy)propyl]-4-methyl-1-oxo-6-(1,3,5-trimethylpyrazol-4-yl)-3,4-dihydropyrazino[1,2-a]indol-2-yl]-1,2-dimethyl-indole-5-carboxylic acid] | – | 370 nM | < 1 nM |
| Cc1cc(OCCCc2c3n(c4c(-c5c(C)nn(C)c5C)c(Cl)ccc24)[C@H](C)CN(c2cccc4ccn(C)c24)C3=O)cc(C)c1Cl [Example 234, (R)-7-Chloro-10-(3-(4-chloro-3,5-dimethylphenoxy)propyl)-4-methyl-2-(1-methyl-1H-indol-7-yl)-6-(1,3,5-trimethyl-1H-pyrazol-4-yl)-3,4-dihydropyrazino[1,2-a]indol-1(2H)-one] | – | 1600 nM | < 1 nM |
| Cc1cc(OCCCc2c3n(c4c(-c5c(C)nn(C)c5C)c(Cl)ccc24)[C@H](C)CN(c2cn(C)c4ccc(C(=O)NCc5ccccn5)cc24)C3=O)cc(C)c1Cl [Example 281, 3-[(4R)-7-chloro-10-[3-(4-chloro-3,5-dimethyl-phenoxy)propyl]-4-methyl-1-oxo-6-(1,3,5-trimethylpyrazol-4-yl)-3,4-dihydropyrazino[1,2-a]indol-2-yl]-1-methyl-N-(2-pyridylmethyl)indole-5-carboxamide] | – | 1400 nM | 2.2 nM |
| Cc1cc(OCCCc2c3n(c4c(-c5c(C)nn(C)c5C)c(Cl)ccc24)[C@H](C)CN(c2cn4cccc(C(=O)O)c4n2)C3=O)cc(C)c1Cl [Example 112, (R)-2-(7-chloro-10-(3-(4-chloro-3,5-dimethylphenoxy)propyl)-4-methyl-1-oxo-6-(1,3,5-trimethyl-1H-pyrazol-4-yl)-3,4-dihydropyrazino[1,2-a]indol-2(1H)-yl)imidazo[1,2-a]pyridine-8-carboxylic acid] | – | 5300 nM | 3.3 nM |
| Cc1cc(OCCCc2c3n(c4c(-c5c(C)nn(C)c5C)c(Cl)ccc24)[C@H](C)CN(c2cn(C)c4ccc(C(=O)Nc5ccncc5)cc24)C3=O)cc(C)c1Cl [Example 283, 3-[(4R)-7-chloro-10-[3-(4-chloro-3,5-dimethyl-phenoxy)propyl]-4-methyl-1-oxo-6-(1,3,5-trimethylpyrazol-4-yl)-3,4-dihydropyrazino[1,2-a]indol-2-yl]-1-methyl-N-(4-pyridyl)indole-5-carboxamide] | – | 1200 nM | 1.2 nM |
| Cc1cc(N2C[C@@H](C)n3c(c(CCCOc4cc(C)c(Cl)c(C)c4)c4ccc(Cl)c(-c5c(C)nn(C)c5C)c43)C2=O)c2c(c1)cc(C(=O)O)n2CC1CCOCC1 [Example 324, (R)-7-(7-Chloro-10-(3-(4-chloro-3,5-dimethylphenoxy)propyl)-4-methyl-1-oxo-6-(1,3,5-trimethyl-1H-pyrazol-4-yl)-3,4-dihydropyrazino[1,2-a]indol-2(1H)-yl)-5-methyl-1-((tetrahydro-2H-pyran-4-yl)methyl)-1H-indole-2-carboxylic acid] | – | 610 nM | < 1 nM |
| Cc1cc(OCCCc2c3n(c4c(-c5c(C)nn(C)c5C)c(Cl)ccc24)[C@H](C)CN(c2cc(OC(F)(F)F)cc4cc(C(=O)O)[nH]c24)C3=O)cc(C)c1Cl [Example 469, (R)-7-(7-Chloro-10-(3-(4-chloro-3,5-dimethylphenoxy)propyl)-4-methyl-1-oxo-6-(1,3,5-trimethyl-1H-pyrazol-4-yl)-3,4-dihydropyrazino[1,2-a]indol-2(1H)-yl)-5-(trifluoromethoxy)-1H-indole-2-carboxylic acid] | – | 3300 nM | 2.2 nM |
| Cc1cc(OCCCc2c3n(c4c(-c5c(C)nn(C)c5C)c(Cl)ccc24)[C@H](C)CN(c2cn(C)c4c(-c5nnnn5C)cccc24)C3=O)cc(C)c1Cl [Example 372, (R)-7-Chloro-10-(3-(4-chloro-3,5-dimethylphenoxy)propyl)-4-methyl-2-(1-methyl-7-(1-methyl-1H-tetrazol-5-yl)-1H-indol-3-yl)-6-(1,3,5-trimethyl-1H-pyrazol-4-yl)-3,4-dihydropyrazino[1,2-a]indol-1(2H)-one] | – | 2000 nM | 1.2 nM |
